Experimental data reported in ChEMBL document CHEMBL4359843, “Linear and Rationally Designed Stapled Peptides Abrogate TLR4 Pathway and Relieve Inflammatory Symptoms in Rheumatoid Arthritis Rat Model” (J Med Chem, 2019).
Activity calls are given as the source filed them. The rule behind the calls is not given here. Where a SMILES comes first, the peptide text is derived from it. Bridges are numbered along the chain shown (N, C = ends).

Legend:
Assay type in all cases: cell-based
[1] = molecular target: T1, Toll-like receptor 9 (Homo sapiens) (UniProt Q9NR96); test: Antagonist activity at TLR9 in human THP1 cells assessed as reduction in CpG ODN-induced IL6 secretion at 50 uM after 24 hrs by ELISA
T1 sequence (whole entry): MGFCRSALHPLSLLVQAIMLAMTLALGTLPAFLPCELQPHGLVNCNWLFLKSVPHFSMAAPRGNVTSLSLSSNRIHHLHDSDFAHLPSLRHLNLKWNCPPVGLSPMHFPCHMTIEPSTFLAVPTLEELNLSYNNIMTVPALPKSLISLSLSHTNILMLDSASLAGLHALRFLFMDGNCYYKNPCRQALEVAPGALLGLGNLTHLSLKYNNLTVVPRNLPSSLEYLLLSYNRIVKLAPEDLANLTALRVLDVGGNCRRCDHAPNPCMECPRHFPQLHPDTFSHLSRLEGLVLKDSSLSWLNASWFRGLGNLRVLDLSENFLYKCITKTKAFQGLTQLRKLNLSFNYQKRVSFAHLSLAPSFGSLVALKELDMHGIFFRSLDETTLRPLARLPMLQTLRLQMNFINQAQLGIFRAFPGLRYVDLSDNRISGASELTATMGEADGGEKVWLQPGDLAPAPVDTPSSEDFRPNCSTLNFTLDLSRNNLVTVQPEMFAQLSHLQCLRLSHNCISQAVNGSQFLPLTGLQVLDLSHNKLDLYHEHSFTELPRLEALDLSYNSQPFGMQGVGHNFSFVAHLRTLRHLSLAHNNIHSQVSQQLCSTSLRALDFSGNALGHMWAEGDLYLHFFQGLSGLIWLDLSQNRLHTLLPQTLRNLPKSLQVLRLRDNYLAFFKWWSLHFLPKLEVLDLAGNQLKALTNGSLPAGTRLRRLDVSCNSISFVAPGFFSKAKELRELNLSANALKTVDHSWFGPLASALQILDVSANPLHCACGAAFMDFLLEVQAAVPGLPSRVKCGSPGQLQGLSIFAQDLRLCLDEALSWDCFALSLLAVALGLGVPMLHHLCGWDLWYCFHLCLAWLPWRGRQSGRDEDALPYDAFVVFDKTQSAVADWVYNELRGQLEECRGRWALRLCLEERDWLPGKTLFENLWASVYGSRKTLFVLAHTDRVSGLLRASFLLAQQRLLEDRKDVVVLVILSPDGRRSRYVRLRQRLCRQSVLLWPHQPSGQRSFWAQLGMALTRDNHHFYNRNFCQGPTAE

[2] = molecular target: T2, Toll-like receptor 4 (Mus musculus) (UniProt Q9QUK6); test: Antagonist activity at TLR4 in mouse RAW264.7 cells assessed as reduction in LPS-induced IFNalpha secretion at 5 to 50 uM after 24 hrs by ELISA
T2 sequence (whole entry): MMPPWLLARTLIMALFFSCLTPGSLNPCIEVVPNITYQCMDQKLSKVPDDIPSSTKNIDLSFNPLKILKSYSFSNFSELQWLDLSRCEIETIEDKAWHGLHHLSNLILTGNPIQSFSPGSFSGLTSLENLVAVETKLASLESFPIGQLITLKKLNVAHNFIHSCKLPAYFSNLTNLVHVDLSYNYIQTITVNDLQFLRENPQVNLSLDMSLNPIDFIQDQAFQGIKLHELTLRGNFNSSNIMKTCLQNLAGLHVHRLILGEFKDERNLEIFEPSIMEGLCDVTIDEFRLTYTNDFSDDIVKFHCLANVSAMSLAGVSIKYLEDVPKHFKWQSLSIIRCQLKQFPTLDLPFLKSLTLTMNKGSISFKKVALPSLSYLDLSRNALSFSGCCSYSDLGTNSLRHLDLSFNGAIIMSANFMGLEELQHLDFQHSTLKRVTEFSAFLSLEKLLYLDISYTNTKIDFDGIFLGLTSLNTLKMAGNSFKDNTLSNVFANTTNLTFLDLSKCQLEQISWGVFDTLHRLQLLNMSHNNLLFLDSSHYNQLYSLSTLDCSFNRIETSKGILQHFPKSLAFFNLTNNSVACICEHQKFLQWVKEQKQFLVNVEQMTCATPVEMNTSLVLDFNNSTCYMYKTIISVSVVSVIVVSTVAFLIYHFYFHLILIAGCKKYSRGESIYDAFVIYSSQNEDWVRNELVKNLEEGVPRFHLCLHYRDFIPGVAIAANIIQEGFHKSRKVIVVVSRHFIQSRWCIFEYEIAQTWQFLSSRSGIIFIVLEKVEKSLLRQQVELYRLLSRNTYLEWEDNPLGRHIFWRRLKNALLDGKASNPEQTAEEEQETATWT

[3] = molecular target: Toll-like receptor 1/2 (Homo sapiens) (UniProt O60603+Q15399); test: Antagonist activity at TLR2/1 in human THP1 cells assessed as reduction in PAM3CSK4-induced IL6 secretion at 50 uM after 24 hrs by ELISA
Toll-like receptor 4 = Toll-like receptor 4 (Homo sapiens, UniProt O00206); test: Antagonist activity at TLR4 in human THP1 cells assessed as reduction in LPS-induced NFkappaB p65 phosphorylation at 50 uM after 15 to 30 mins by Western blot analysis
Sequence of Toll-like receptor 4 (O00206 whole entry): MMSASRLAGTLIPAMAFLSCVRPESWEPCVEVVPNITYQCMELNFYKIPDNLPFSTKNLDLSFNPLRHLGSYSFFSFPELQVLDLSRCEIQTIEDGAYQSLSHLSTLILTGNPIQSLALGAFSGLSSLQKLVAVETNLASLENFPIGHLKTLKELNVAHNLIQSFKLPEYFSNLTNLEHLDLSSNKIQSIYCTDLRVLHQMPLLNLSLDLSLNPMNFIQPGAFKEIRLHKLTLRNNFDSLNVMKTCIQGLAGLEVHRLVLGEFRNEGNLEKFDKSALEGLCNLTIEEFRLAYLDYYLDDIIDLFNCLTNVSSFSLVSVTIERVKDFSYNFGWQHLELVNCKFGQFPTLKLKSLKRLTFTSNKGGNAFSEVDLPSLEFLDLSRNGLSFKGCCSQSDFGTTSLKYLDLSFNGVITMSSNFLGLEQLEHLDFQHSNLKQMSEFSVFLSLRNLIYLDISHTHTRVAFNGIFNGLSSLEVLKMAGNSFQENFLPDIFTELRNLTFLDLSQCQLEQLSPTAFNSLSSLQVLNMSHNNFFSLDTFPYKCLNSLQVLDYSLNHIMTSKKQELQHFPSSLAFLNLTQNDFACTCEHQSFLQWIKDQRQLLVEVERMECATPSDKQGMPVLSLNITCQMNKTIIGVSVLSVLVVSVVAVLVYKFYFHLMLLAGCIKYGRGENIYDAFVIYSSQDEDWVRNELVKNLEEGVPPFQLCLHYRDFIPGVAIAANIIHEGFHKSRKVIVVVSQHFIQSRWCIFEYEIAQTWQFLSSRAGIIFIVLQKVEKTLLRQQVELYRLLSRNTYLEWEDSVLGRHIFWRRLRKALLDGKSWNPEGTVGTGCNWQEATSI

[4] = molecular target: T2, Toll-like receptor 4 (Mus musculus); test: Antagonist activity at TLR4 in mouse RAW264.7 cells assessed as reduction in LPS-induced IkappaBalpha cytosolic degradation at 80 uM after 15 to 30 mins by Western blot analysis
[5] = molecular target: T2, Toll-like receptor 4 (Mus musculus); test: Antagonist activity at TLR4 in mouse RAW264.7 cells assessed as reduction in LPS-induced p38 phosphorylation at 80 uM after 15 to 30 mins by Western blot analysis

Activity [1] | Activity [2] | Activity [3] | Activity (Toll-like receptor 4) | Activity [4] | Activity [5] | Molecule
Active | Active | Active | Active |  |  | CC[C@H](C)[C@@H]1NC(=O)[C@H](Cc2c[nH]c3ccccc23)NC(=O)[C@H](Cc2c[nH]c3ccccc23)NC(=O)[C@@H](NC(=O)[C@H](CO)NC(=O)[C@H](Cc2ccccc2)NC(=O)[C@@H](NC(=O)CNC(=O)[C@@H](N)CC(C)C)C(C)C)CC(=O)NCCCC[C@@H](C(=O)N[C@@H](CC(C)C)C(=O)N[C@H](C(=O)O)C(C)C)NC1=O (H-LGVFSDWWIKLV-OH; lactam 6-10)
 |  |  |  | Active | Active | H-LGVFSSWWIKLV-OH
